US7691858B2, “Kinase inhibitors and methods of use thereof” (TargeGen, Inc., priority 2006, dated 2010)
Entries after “also recorded” stand apart in the source; their conditions may differ.

Legend:
histamine-induced edema = experiment: Miles assay, histamine as agonist; type: in vivo, Sprague-Dawley rats; conditions: rats, Compound I pretreatment (1 mg/kg in FIG. 4)
Description: Sprague-Dawley rats were first injected IV with vehicle alone or test agent, followed by IV injection of Evans blue dye, followed by intradermal injections of saline and VEGF (200 ng/injection site) along both shaved flanks. […] The ability of test agents to influence edema induced by agonists other than VEGF was also tested. Compounds cited in this application inhibited edema formation induced using histamine as an agonist, for example, as shown below. The ability of test agent to influence vascular edema was tested as above, except that the ability to block edema was tested using either VEGF or histamine as the agonist (200 ng and 10 μg/injection site, respectively).

[1] = system: PAF-induced inflammatory edema; experiment: Rat hindpaw inflammation model, PAF; type: in vivo, Sprague Dawley rats
Description: (§1) FIG. 4. Inhibition of edema and inflammation. (a, b) Rats were injected i.v. with Evans blue dye and then intradermally with saline, VEGF or histamine. […] (c-f) Rat hindpaws were injected with either PAF (c & d) or dextran (e & f), and three hours later processed as H&E-stained paraffin sections. […] Images were taken of paws representing the mean group value for volume as presented in Results (original magnification 200×).
(§2) The Miles assay models a primarily endothelial-based response that develops rapidly (within minutes). As a comparator, we next employed a rodent hindpaw model where more complex inflammatory reactions develop over several hours. Agonists included PAF, a GPCR ligand that activates both EC and leukocytes, and dextran, a phagocytic stimulus for mast cell and leukocyte activation. […] Paw volume (a more quantitative measure of edema and inflammation) was reduced by 62% and 78% in response to PAF or dextran, respectively (n=8, P<0.001). Finally, to correlate these in vivo responses with the molecular target of interest, we monitored PI3K pathway signaling through Western blot analyses of Akt phosphorylation (a PI3K-mediated event).
(§3) In order to determine the influence of compounds on the development of inflammation, Sprague Dawley rats were first injected intravenously with either vehicle or test compound at 5 mg/kg, and then 30 min later either PBS (as a control), dextran or platelet activating factor (PAF) was injected into the plantar surface of the hindlimbs, dextran and PAF being known to induce localized inflammatory responses marked by edema. Three hours later, paw dimensions were measured using a caliper and paw volumes calculated; data are shown as the increase in paw volume (mm^3) as compared to controls (paws injected with PBS).

[2] = system: dextran-induced inflammatory edema; experiment: Rat hindpaw inflammation model, dextran; type: in vivo, Sprague Dawley rats
Description: as §1, §2, §3

Abl = target: T1, Abl (Mus musculus, UniProt P00520); experiment: Kinase panel screen; type: biochemical; conditions: Compound I and ATP 10 μM
T1 construct: purchased Upstate USA or Invitrogen (commercial screening service)

MINK = target: T2, MINK (Homo sapiens, UniProt Q8N4C8); experiment: Kinase panel screen; type: biochemical; conditions: Compound I and ATP 10 μM
T2 construct: purchased Upstate USA or Invitrogen (contract screening service)

Plk3 = target: T3, Plk3 (Homo sapiens, UniProt Q9H4B4); experiment: Kinase panel screen; type: biochemical; conditions: Compound I and ATP 10 μM
T3 construct: purchased Upstate USA or Invitrogen (contract screening service)

MKK7b = target: T4, MKK7b (Homo sapiens, UniProt O14733); experiment: Kinase panel screen; type: biochemical; conditions: Compound I and ATP 10 μM
T4 construct: purchased Upstate USA or Invitrogen (contract screening service)

Fgr = target: T5, Fgr (Homo sapiens, UniProt P09769); experiment: Kinase panel screen; type: biochemical; conditions: Compound I and ATP 10 μM
T5 construct: purchased Upstate USA or Invitrogen (contract screening service)

ROCK-I = target: T6, ROCK-I (Homo sapiens, UniProt Q13464); experiment: Kinase panel screen; type: biochemical; conditions: Compound I and ATP 10 μM
T6 construct: purchased Upstate USA or Invitrogen (commercial screening service)

Flt1 = target: T7, Flt1 (Homo sapiens, UniProt P17948); experiment: Kinase panel screen; type: biochemical; conditions: Compound I and ATP 10 μM
T7 construct: purchased Upstate USA or Invitrogen (commercial screening service)

ROCK-II = target: T8, ROCK-II (Homo sapiens, UniProt O75116); experiment: Kinase panel screen; type: biochemical; conditions: Compound I and ATP 10 μM
T8 construct: purchased Upstate USA or Invitrogen (commercial screening service)

Ron = target: T9, Ron (Homo sapiens, UniProt Q04912); experiment: Kinase panel screen; type: biochemical; conditions: Compound I and ATP 10 μM
T9 construct: purchased Upstate USA or Invitrogen (commercial screening service)

NEK6 = target: T10, NEK6 (Homo sapiens, UniProt Q9HC98); experiment: Kinase panel screen; type: biochemical; conditions: Compound I and ATP 10 μM
T10 construct: purchased Upstate USA or Invitrogen (commercial screening service)

cKit = target: T11, cKit (Homo sapiens, UniProt P10721); experiment: Kinase panel screen; type: biochemical; conditions: Compound I and ATP 10 μM
T11 construct: purchased Upstate USA or Invitrogen (commercial screening service)

cRaf = target: T12, cRaf (Homo sapiens, UniProt P04049); experiment: Kinase panel screen; type: biochemical; conditions: Compound I at 1 μM and ATP at the apparent Km
T12 construct: purchased Upstate USA or Invitrogen (commercial screening service)

GSK3 3 = target: T13, GSK3 3 (Homo sapiens, UniProt P49841); experiment: Kinase panel screen; type: biochemical; conditions: Compound I and ATP 10 μM
T13 construct: purchased Upstate USA or Invitrogen (commercial screening service)

Rsk3 = target: T14, Rsk3 (Homo sapiens, UniProt Q15349); experiment: Kinase panel screen; type: biochemical; conditions: Compound I and ATP 10 μM
T14 construct: purchased Upstate USA or Invitrogen (commercial screening service)

SAPK2a = target: T15, SAPK2a (Homo sapiens, UniProt Q16539); experiment: Kinase panel screen; type: biochemical; conditions: Compound I and ATP 10 μM
T15 construct: purchased Upstate USA or Invitrogen (commercial screening service)

CDK5 = target: T16, CDK5 (Homo sapiens, UniProt Q00535); experiment: Kinase panel screen; type: biochemical; conditions: Compound I and ATP 10 μM
T16 construct: purchased Upstate USA or Invitrogen (commercial screening service)

Pim-1 = target: T17, Pim-1 (Homo sapiens, UniProt P11309); experiment: Kinase panel screen; type: biochemical; conditions: Compound I and ATP 10 μM
T17 construct: purchased Upstate USA or Invitrogen (contract screening service)

CDK6 = target: T18, CDK6 (Homo sapiens, UniProt Q00534); experiment: Kinase panel screen; type: biochemical; conditions: Compound I and ATP 10 μM
T18 construct: purchased Upstate USA or Invitrogen (contract screening service)

JAK3 = target: T19, JAK3 (Homo sapiens, UniProt P52333); experiment: Kinase panel screen; type: biochemical; conditions: Compound I and ATP 10 μM
T19 construct: purchased Upstate USA or Invitrogen (contract screening service)

CDK7 = target: T20, CDK7 (Homo sapiens, UniProt P50613); experiment: Kinase panel screen; type: biochemical; conditions: Compound I and ATP 10 μM
T20 construct: purchased Upstate USA or Invitrogen (contract screening service)

TBK1 = target: T21, TBK1 (Homo sapiens, UniProt Q9UHD2); experiment: Kinase panel screen; type: biochemical; conditions: Compound I and ATP 10 μM
T21 construct: purchased Upstate USA or Invitrogen (contract screening service)

TrkA = target: T22, TrkA (Homo sapiens, UniProt P04629); experiment: Kinase panel screen; type: biochemical; conditions: Compound I and ATP 10 μM
T22 construct: purchased Upstate USA or Invitrogen (contract screening service)

Yes = Yes (Homo sapiens, UniProt P07947); experiment: Kinase panel screen; type: biochemical; conditions: Compound I and ATP 10 μM
PKCpiI = target: T23, PKCpiI (Homo sapiens, UniProt P05771); experiment: Kinase panel screen; type: biochemical; conditions: Compound I and ATP 10 μM
T23 construct: purchased Upstate USA or Invitrogen (commercial screening service)

MAPK2 = target: T24, MAPK2 (Homo sapiens, UniProt P28482); experiment: Kinase panel screen; type: biochemical; conditions: Compound I and ATP 10 μM
T24 construct: purchased Upstate USA or Invitrogen (commercial screening service)
T24 sequence (P28482 whole entry): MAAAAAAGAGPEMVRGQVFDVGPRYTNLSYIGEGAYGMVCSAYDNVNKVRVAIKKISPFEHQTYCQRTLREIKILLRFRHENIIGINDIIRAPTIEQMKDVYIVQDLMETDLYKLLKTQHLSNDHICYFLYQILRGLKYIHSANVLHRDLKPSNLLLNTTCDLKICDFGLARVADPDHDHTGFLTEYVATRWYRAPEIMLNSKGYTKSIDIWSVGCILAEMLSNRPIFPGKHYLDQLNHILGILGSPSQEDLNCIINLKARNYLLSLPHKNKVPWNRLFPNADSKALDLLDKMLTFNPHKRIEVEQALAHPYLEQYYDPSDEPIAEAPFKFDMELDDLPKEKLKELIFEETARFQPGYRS

T20 sequence (P50613 whole entry): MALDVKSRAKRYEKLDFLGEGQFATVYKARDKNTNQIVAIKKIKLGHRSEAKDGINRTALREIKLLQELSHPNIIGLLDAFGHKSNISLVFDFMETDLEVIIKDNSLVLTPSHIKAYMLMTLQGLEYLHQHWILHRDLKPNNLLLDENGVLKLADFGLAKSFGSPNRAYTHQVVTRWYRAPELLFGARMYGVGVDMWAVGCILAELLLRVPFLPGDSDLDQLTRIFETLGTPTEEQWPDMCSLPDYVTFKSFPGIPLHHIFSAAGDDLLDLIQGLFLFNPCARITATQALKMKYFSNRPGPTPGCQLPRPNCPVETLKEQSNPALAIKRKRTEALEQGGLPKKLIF
T20 sequence (P51946 whole entry partner): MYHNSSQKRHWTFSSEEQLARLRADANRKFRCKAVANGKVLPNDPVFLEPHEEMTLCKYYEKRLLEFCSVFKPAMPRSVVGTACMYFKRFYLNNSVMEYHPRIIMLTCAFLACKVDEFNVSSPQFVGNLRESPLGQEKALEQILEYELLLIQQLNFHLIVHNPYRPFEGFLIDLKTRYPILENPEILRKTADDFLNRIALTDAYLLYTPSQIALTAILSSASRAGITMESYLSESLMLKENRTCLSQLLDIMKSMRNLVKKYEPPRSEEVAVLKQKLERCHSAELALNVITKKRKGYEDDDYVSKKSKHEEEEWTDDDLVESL
T20 sequence (P51948 whole entry partner): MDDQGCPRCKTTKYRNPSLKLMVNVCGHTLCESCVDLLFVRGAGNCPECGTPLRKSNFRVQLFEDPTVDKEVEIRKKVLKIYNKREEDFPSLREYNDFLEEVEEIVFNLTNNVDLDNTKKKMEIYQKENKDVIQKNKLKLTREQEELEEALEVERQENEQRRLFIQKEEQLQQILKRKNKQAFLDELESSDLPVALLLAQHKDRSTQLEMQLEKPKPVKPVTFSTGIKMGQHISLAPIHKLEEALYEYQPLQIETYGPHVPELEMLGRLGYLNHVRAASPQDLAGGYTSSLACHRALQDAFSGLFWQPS
T18 sequence (Q00534 whole entry): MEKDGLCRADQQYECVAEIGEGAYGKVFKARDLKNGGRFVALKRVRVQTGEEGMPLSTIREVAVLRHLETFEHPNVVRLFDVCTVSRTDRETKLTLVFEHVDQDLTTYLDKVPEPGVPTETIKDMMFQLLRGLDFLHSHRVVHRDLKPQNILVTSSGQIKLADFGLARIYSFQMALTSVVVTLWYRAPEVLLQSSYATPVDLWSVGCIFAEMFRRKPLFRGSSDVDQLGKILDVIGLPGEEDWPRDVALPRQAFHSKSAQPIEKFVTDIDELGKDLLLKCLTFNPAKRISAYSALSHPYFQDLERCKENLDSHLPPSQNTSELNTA
T18 sequence (P30281 whole entry partner): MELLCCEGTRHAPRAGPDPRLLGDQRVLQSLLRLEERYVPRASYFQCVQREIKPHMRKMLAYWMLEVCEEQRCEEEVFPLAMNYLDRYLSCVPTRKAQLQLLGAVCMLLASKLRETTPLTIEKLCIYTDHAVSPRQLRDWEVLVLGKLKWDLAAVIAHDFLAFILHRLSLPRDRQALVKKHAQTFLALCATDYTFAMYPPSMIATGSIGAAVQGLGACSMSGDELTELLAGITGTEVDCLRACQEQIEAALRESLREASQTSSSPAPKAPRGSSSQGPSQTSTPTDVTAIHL
T16 sequence (Q00535 whole entry): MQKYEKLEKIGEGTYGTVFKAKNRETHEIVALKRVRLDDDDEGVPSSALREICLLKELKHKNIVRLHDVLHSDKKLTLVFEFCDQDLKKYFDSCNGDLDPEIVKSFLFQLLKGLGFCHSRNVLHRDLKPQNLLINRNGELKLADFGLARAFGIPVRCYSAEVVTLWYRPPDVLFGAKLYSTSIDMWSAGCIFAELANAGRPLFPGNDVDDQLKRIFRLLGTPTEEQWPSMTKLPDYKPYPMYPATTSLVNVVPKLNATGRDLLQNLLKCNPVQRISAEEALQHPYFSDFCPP
T16 sequence (Q15078 whole entry partner): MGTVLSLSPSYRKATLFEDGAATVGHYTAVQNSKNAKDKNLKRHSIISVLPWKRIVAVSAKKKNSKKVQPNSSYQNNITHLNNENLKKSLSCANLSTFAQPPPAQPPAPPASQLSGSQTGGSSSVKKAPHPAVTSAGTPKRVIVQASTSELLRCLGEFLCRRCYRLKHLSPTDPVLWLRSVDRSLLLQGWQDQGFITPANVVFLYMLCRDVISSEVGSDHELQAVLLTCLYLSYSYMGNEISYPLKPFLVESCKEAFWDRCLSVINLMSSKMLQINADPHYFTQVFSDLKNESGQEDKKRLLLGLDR
T11 sequence (P10721 26-976): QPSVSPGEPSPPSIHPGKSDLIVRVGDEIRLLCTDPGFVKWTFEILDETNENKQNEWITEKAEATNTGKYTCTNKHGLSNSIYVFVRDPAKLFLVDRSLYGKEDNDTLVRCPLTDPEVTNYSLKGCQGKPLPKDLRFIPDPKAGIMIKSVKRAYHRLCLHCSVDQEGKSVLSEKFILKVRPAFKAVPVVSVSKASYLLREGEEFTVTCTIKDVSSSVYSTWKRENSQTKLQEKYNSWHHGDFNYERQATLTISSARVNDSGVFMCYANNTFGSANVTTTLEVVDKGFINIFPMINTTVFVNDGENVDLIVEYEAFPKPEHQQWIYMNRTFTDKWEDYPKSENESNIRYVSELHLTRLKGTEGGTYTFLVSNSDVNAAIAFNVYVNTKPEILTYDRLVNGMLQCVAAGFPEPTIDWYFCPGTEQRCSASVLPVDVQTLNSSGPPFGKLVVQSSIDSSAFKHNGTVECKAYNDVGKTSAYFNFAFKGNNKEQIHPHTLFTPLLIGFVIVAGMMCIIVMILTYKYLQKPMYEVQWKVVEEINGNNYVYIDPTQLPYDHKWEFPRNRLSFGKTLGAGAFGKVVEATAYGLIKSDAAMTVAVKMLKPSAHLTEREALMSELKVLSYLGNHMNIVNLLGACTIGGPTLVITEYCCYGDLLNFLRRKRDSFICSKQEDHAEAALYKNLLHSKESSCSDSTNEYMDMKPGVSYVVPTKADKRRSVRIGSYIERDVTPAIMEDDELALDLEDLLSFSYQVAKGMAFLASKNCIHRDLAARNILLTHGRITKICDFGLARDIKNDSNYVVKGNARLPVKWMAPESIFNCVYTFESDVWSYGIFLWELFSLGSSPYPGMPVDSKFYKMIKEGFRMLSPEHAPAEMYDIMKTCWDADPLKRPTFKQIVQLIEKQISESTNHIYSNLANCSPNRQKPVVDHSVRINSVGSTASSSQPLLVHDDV
T23 sequence (P05771 1-673 isoform P05771-2): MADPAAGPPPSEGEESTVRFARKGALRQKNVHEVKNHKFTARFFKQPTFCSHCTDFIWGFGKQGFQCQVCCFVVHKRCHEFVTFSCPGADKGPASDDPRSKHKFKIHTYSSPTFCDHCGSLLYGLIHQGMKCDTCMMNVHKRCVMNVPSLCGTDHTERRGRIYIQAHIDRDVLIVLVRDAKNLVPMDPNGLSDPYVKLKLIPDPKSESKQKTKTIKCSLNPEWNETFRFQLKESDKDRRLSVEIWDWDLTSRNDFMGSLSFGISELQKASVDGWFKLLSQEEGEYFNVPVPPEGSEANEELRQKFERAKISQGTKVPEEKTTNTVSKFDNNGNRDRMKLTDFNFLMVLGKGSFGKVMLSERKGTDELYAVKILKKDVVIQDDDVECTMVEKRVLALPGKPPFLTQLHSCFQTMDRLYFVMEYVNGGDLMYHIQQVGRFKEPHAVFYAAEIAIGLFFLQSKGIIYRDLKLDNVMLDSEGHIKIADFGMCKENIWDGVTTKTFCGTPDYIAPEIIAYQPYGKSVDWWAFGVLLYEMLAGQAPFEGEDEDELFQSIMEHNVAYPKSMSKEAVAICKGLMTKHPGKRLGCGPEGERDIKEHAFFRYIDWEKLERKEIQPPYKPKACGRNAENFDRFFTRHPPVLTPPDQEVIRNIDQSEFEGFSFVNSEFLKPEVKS
T15 sequence (Q16539 whole entry): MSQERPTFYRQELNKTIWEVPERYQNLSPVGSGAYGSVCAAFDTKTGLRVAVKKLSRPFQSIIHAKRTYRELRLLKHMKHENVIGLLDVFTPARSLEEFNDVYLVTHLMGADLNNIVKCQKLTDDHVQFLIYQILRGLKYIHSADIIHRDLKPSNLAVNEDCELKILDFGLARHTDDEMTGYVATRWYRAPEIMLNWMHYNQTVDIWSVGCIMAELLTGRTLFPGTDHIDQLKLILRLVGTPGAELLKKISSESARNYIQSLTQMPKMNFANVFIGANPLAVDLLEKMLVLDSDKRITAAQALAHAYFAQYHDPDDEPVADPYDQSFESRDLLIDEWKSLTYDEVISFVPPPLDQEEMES
T17 sequence (P11309 whole entry): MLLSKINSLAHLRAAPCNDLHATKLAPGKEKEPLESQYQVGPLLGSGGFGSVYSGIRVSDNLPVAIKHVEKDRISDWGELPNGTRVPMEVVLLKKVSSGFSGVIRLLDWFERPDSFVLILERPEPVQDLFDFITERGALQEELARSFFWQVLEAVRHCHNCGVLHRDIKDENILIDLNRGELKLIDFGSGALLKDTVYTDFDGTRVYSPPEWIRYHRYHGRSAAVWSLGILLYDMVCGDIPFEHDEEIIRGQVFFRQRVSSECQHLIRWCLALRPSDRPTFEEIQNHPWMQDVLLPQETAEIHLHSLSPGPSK

For `Nc1nc(N)c2nc(-c3cccc(O)c3)c(-c3cccc(O)c3)nc2n1` [Compound I, 6,7-bis-(3-hydroxyphenyl)-pteridine-2,4-diamine], the “histamine-induced permeability / edema formation” value (histamine-induced edema) was “blocked; also recorded: reduced edema formation”, the “Increase in Paw Volume vs. Controls” value ([1]; 5 mg/kg iv 30 min before, 3 hours, mean±SEM N=6, vehicle 71 ± 9) was 27 ± 4 mm^3 and the “edema and leukocyte infiltration (histology)” value ([1]; 5 mg/kg pretreatment, three hours) was “strongly antagonized; also recorded: blocked”. For the same compound, the “reduction of paw volume” value ([1]; n=8) was 62%, the “Increase in Paw Volume vs. Controls” value ([2]; Dextran, 5 mg/kg iv 30 min before, 3 hours, mean±SEM N=6, vehicle 148 ± 6) was 32 ± 5 mm^3 and the “edema and leukocyte infiltration (histology)” value ([2]; dextran, 5 mg/kg pretreatment, three hours) was “strongly antagonized; also recorded: blocked”. For the same compound, the “reduction of paw volume” value ([2]; dextran, n=8) was 78%, the “Percent Control, Abl (m)” value (Abl) was 66% and the “Percent Control, MINK” value (MINK) was 88%. For the same compound, the “Percent Control, Plk3” value (Plk3) was 97%, the “Percent Control, MKK7b” value (MKK7b) was 79% and the “Percent Control, Fgr” value (Fgr) was 72%. The “Percent Control, ROCK-I” value (ROCK-I) was 93%, the “Percent Control, Flt1” value (Flt1) was 62% and the “Percent Control, ROCK-II” value (ROCK-II) was 81%. For the same compound, the “Percent Control, Ron” value (Ron) was 71%, the “Percent Control, NEK6” value (NEK6) was 97% and the “Percent Control, cKit” value (cKit) was 96%. For the same compound, the “Percent Control, cRaf*” value (cRaf) was 98%, the “Percent Control, GSK3 3” value (GSK3 3) was “p70S6K Percent” and the “Percent Control, Rsk3” value (Rsk3) was 90%. For the same compound, the “Percent Control, SAPK2a” value (SAPK2a) was 55%, the “Percent Control, CDK5” value (CDK5) was 82% and the “Percent Control, Pim-1” value (Pim-1) was 70%. For the same compound, the “Percent Control, CDK6” value (CDK6) was 83%, the “Percent Control, JAK3” value (JAK3) was 99% and the “Percent Control, CDK7” value (CDK7) was 82%. The “Percent Control, TBK1” value (TBK1) was 89%, the “Percent Control, TrkA” value (TrkA) was 57% and the “Percent Control, Yes” value (Yes) was 30%. For the same compound, the “Percent Control, PKCpiI” value (PKCpiI) was 80% and the “Percent Control, MAPK2” value (MAPK2) was 84%.
